Reference: patent publication US11963962B2, “Platelet count-agnostic methods of treating myelofibrosis” (Sierra Oncology, Inc., priority 2018, dated 2024)
Several values for one entry are separate records, joined by “and”; a condition that tells them apart may be missing. Identical values can stand only once.

How the values were obtained:
Format in all cases: in vivo, human
[1] = tested on: myelofibrosis; assay: SIMPLIFY-2 Phase 3 trial: transfusion independence and TD to TI conversion; settings: for TD to 12w rolling TI Absolute risk difference (Newcombe 95% CI) / TD to W24 TI Absolute risk difference (Newcombe 95% CI) / TI rate Absolute risk difference (Newcombe 95% CI): MMB vs Control
Text: The improved outcome from MMB therapy that results from practicing the subject methods can be manifested as an improvement in one or more clinical endpoints (e.g., as described herein), such as anemia response, in spleen response and/or symptom response. By “anemia response” is meant an increase in the patient's hemoglobin level or a patient who was transfusion dependent becoming transfusion independent. Desirably, a minimum increase in hemoglobin of 0.5 g/dL, such as 1.0 g/dL 1.5 g/dL or 2.0 g/dL lasting a minimum of 8 weeks is achieved, which is the level of improvement specified in the International Working Group (IWG) consensus criteria. However, smaller, but still medically significant, increases in hemoglobin are also considered to be within the term “anemia response”. “Transfusion independence” is an anemia endpoint and refers to a subject who required no RBC transfusions over a 12 week period and had no hemoglobin levels less than 8 g/dL to 8.5 g/dL over the 12 week period. In some embodiments, the 12 week period of transfusion independence is the terminal 12 weeks of a 24 week study period. By red blood cell (RBC) transfusion independence rate at week 24 of a study is meant the proportion of subjects who were transfusion independent at week 24, excluding cases associated with clinically overt bleeding.
In the SIMPLIFY-2 trial (NCT02101268), the efficacy and safety of MMB was studied in anemic or thrombocytopenic subjects with myelofibrosis who were previously treated with ruxolitinib (RUX). […] Specifically, anemic or thrombocytopenic myelofibrosis patients who had and were previously treated with (RUX) (for at least 28 days) were studied over 24 weeks for response to MMB versus best available treatment (BAT), primarily RUX (89% of patients) but alternatively no treatment or other standard interventions, after which period all patients could receive extended MMB treatment. Previously treated RUX patients who either required red blood cell transfusions or RUX dose reduction with grade 3 thrombocytopenia, anemia, and/or bleeding at grade 3 or worse, with palpable spleen of at least 5 cm and without grade 2 or greater peripheral neuropathy were included in the trial. There was no lower limit for the required baseline platelet count. The primary endpoint was a reduction by at least 35% in the spleen volume at 24 weeks compared with baseline.
FIG. 8A: SIMPLIFY-1 study of MMB in a first line population previously untreated with JAKi. For SIMPLIFY-1, the goal was non-inferiority over ruxolitinib (RUX) (MMB: N=215 subjects, and RUX: N=217 subjects). FIG. 8B: SIMPLIFY-2 study of second line population of anemic or thrombocytopenic subjects previously treated with RUX (red blood cell (RBC) transfusions on RUX=64%. RUX dose adjustment for: thrombocytopenia=21%; anemia/hematoma=35%). For SIMPLIFY-2, the goal was superiority over best available treatment (BAT) (MMB: N=104 subjects, and BAT: N=52 subjects). In both SIMPLIFY-1 and SIMPLIFY: Primary endpoint: >=35% reduction in spleen volume at 24 weeks. Secondary endpoints: Total symptom score (TSS) response at 24 weeks. Effects on RBC transfusion requirements.
The SIMPLIFY 2 clinical trial data was reanalyzed for subgroups of subjects having particular baseline platelet counts in the MMB versus BAT arms of the study.
Patient data was analyzed according to the following baseline platelet count (PLT) subgroups and in particular according to a threshold PLT of 150×10^9/L: 1) PLT<50×10^9/L; 2) 50×10^9/L≤PLT<100×10^9/L; 3) 100×10^9/L≤PLT<150×10^9/L. The reanalyzed data is presented in Table 14 (SIMPLIFY 2).

[2] = tested on: myelofibrosis; assay: Translational biology Phase 2 study (GS-US-352-1672) in transfusion dependent MF patients
Text: In a translational biology study, we determined the impact of momelotinib on plasma hepcidin, markers of iron storage and availability, erythropoiesis, and inflammation to explore mechanisms of the favorable effects of momelotinib on MF-associated anemia and transfusion independence. See Oh et al. “Hepcidin Suppression by Momelotinib Is Associated With Increased Iron Availability and Erythropoiesis in Transfusion-Dependent Myelofibrosis Patients”, Abstract #4282: Presented at ASH 60th Annual Meeting & Exposition: Dec. 1-4, 2018, San Diego, Calif., the disclosure of which is herein incorporated by reference.
Population: Primary MF (PMF), post-polycythemia vera MF (post-PV MF), or post-essential thrombocythemia MF (post-ET MF). Requiring MF therapy (in the opinion of the investigator). High risk or intermediate-2 (DIPSS). Transfusion Dependent (TD) at baseline. [defined as ≥4 U red blood cell (RBC) transfusion in the 8 weeks prior to the first dose of MMB]. Goal: Exploratory translational biology study (MMB: N=41 subjects). Objectives: Primary objective: determine the transfusion independence response rate (TI; ≥12 week & ≥8 week) for TD subjects with MF treated with momelotinib. Secondary objectives: Evaluate baseline levels and changes in markers of iron metabolism; Assess inhibition of JAK1/2; Evaluate momelotinib pharmacokinetics in transfusion-dependent subjects with MF; and Evaluate changes in circulating cytokine and inflammatory markers.

[3] = tested on: myelofibrosis; assay: Combined analysis of TI response in TD patients from SIMPLIFY-1, SIMPLIFY-2 and '1672; settings: combined TD patients from SIMPLIFY-1, SIMPLIFY-2 and '1672 (n=152)
Text: This aggregate data is representative of a continuum of Intermediate/High Risk MF patients.

[4] = SIMPLIFY 2, 50 ≤ PLT < 100 ×10^9/L
[5] = SIMPLIFY 2, 100 ≤ PLT < 150 ×10^9/L
[6] = SIMPLIFY-2, switch from Transfusion Dependent to Independent

**Q.** What does the source list for `Cl.N#CCNC(=O)c1ccc(-c2ccnc(Nc3ccc(N4CCOCC4)cc3)n2)cc1` [MMB, N-(cyanomethyl)-4-(2-(4-morpholinophenylamino)pyrimidin-4-yl)benzamide]?
**A.** patients TI at week 24 ([1]; SIMPLIFY 2): 43%; transfusion dependent (TD) patients at baseline who were TI at week 24 ([1]; SIMPLIFY 2): 32.8%; TD to 12w rolling TI Responders [1, 4]: 7; TD to 12w rolling TI proportion (Wilson 95% CI) [1, 4]: 0.54; TD to W24 TI Responders [1, 4]: 6; TD to W24 TI proportion (Wilson 95% CI) [1, 4]: 0.46; TI rate Responders [1, 4]: 18; TI rate proportion (Wilson 95% CI) [1, 4]: 0.55; TD to 12w rolling TI Absolute risk difference (Newcombe 95% CI) [1, 4]: 0.27; TD to W24 TI Absolute risk difference (Newcombe 95% CI) [1, 4]: 0.37; TI rate Absolute risk difference (Newcombe 95% CI) [1, 4]: 0.15; TD to 12w rolling TI Responders [1, 5]: 3; TD to 12w rolling TI proportion (Wilson 95% CI) [1, 5]: 0.23; TD to W24 TI Responders [1, 5]: 4; TD to W24 TI proportion (Wilson 95% CI) [1, 5]: 0.31; TI rate Responders [1, 5]: 10; TI rate proportion (Wilson 95% CI) [1, 5]: 0.42; TD to 12w rolling TI Absolute risk difference (Newcombe 95% CI) [1, 5]: 0.03; TD to W24 TI Absolute risk difference (Newcombe 95% CI) [1, 5]: 0.31; TI rate Absolute risk difference (Newcombe 95% CI) [1, 5]: 0.42; TD to 12w rolling TI Responders ([1]; SIMPLIFY 2, ITT): 24; TD to 12w rolling TI proportion (Wilson 95% CI) ([1]; SIMPLIFY 2, ITT): 0.41; TD to W24 TI Responders ([1]; SIMPLIFY 2, ITT): 19; TD to W24 TI proportion (Wilson 95% CI) ([1]; SIMPLIFY 2, ITT): 0.33; TI rate Responders ([1]; SIMPLIFY 2, ITT): 45; TI rate proportion (Wilson 95% CI) ([1]; SIMPLIFY 2, ITT): 0.43; TD to 12w rolling TI Absolute risk difference (Newcombe 95% CI) ([1]; SIMPLIFY 2, ITT): 0.23; TD to W24 TI Absolute risk difference (Newcombe 95% CI) ([1]; SIMPLIFY 2, ITT): 0.29; TI rate Absolute risk difference (Newcombe 95% CI) ([1]; SIMPLIFY 2, ITT): 0.22; TD to 12w rolling TI Responders ([1]; SIMPLIFY 2, PLT < 50 ×10^9/L): 3; TD to 12w rolling TI proportion (Wilson 95% CI) ([1]; SIMPLIFY 2, PLT < 50 ×10^9/L): 0.50; TD to W24 TI Responders ([1]; SIMPLIFY 2, PLT < 50 ×10^9/L): 2; TD to W24 TI proportion (Wilson 95% CI) ([1]; SIMPLIFY 2, PLT < 50 ×10^9/L): 0.33; TI rate Responders ([1]; SIMPLIFY 2, PLT < 50 ×10^9/L): 2; TI rate proportion (Wilson 95% CI) ([1]; SIMPLIFY 2, PLT < 50 ×10^9/L): 0.22; TD to 12w rolling TI Absolute risk difference (Newcombe 95% CI) ([1]; SIMPLIFY 2, PLT < 50 ×10^9/L): 0.50; TD to W24 TI Absolute risk difference (Newcombe 95% CI) ([1]; SIMPLIFY 2, PLT < 50 ×10^9/L): 0.33; TI rate Absolute risk difference (Newcombe 95% CI) ([1]; SIMPLIFY 2, PLT < 50 ×10^9/L): 0.22; transfusion dependence to independence conversion rate at week 24 ([1]; SIMPLIFY 2, baseline platelet count subgroup 3 (100 to 150×10^9/L)): 46%; ≥8 week transfusion independence rate [1, 6]: 46.6%; ≥12 week transfusion independence rate [1, 6]: 46.6%; ≥8 week transfusion independence rate ([2]; Phase 2 GS-US-352-1672, TD subjects, N=41): 39.0%; ≥12 week transfusion independence rate ([2]; Phase 2 GS-US-352-1672, TD subjects, N=41, listed as momelotinib): 34% and 34.1%; time to increased serum iron and transferrin ([2]; after momelotinib treatment initiation, FIG. 13): ≤ 2 weeks; TI-NR patients with decreased transfusion burden (≥50%) ([2]; any 8 week period, units of RBC, ≥2 unit decrease): 77.8%; effect on hepcidin ([2]; post-MMB administration, FIG. 11): consistently decreased hepcidin; ≥8 week transfusion independence rate [3]: 48.7%; ≥12 week transfusion independence rate [3]: 44.1%
